Results from EPA's ToxRefDB 2.

How the values were obtained:
rat [1] = settings: Carcinogenicity, fischer, Oral, Feed, dose end: 59 week, group: systemic
mouse [2] = settings: Carcinogenicity; b6c3f1; Oral; Feed; dose end: 78 week; group: systemic; systemic / in life observation / body weight / body weight + systemic / pathology microscopic / liver / cytoplasmic alteration + systemic / …
rat [3] = settings: Sub-acute repeat dose toxicity; fischer; Oral; Feed; dose end: 4 week; group: systemic; systemic / in life observation / body weight / body weight gain
rat [4] = settings: Subchronic oral toxicity in rodents, fischer, Feed, dose end: 13 week
rat [5] = settings: Multigenerational reproductive toxicity study, sprague dawley, Oral, Gavage/Intubation, dose end: 2 generation
rat [6] = settings: Multigenerational reproductive toxicity study, other, Oral, Gavage/Intubation, dose end: 2 generation
mouse [7] = settings: Carcinogenicity, b6c3f1, Oral, Feed, dose end: 2 year, group: systemic
mouse [8] = settings: Subchronic oral toxicity in rodents, b6c3f1, Feed, dose end: 13 week, group: systemic
rat [9] = settings: Combined chronic toxicity/carcinogenicity, fischer, Oral, Feed, dose end: 2 year, group: systemic
rat [10] = settings: Developmental neurotoxicity study, sprague dawley, Oral, Gavage/Intubation, dose end: 80 PND, group: cannot be grouped
rat [11] = settings: Chronic toxicity; fischer; Oral; Feed; dose end: 130 week; group: systemic; systemic / pathology microscopic / liver / hypertrophy + systemic / pathology microscopic / liver / necrosis
mouse [12] = settings: Chronic toxicity, [Not Reported], Oral, Feed, dose end: 104 week, group: systemic
rat [13] = settings: Prenatal developmental toxicity study, sprague dawley, Inhalation, Whole-Body, dose end: 15 GD, group: maternal
rat [14] = settings: Acute inhalation toxicity, fischer, Whole-Body, dose end: 2 week, group: systemic
rat [15] = settings: Subchronic inhalation toxicity, fischer, Whole-Body, dose end: 14 week, group: systemic
rat [16] = settings: Prenatal developmental toxicity study, sprague dawley, Inhalation, Whole-Body, dose end: 15 GD, group: maternal; remark: listed apart in the source
mouse [17] = settings: Carcinogenicity; other; Oral; Water; dose end: 36 week; group: systemic; systemic / pathology microscopic / liver / adenoma + systemic / organ weight / liver / absolute + systemic / organ weight / liver / relative…
rat [18] = settings: Developmental neurotoxicity study; sprague dawley; Oral; Gavage/Intubation; dose end: 125 PND; group: cannot be grouped; systemic / in life observation / body weight / offspring (pup) weight
rat [19] = settings: Peri- and post-natal toxicity study (Segment III), sprague dawley, Oral, Gavage/Intubation, dose end: 54 PND
rat [20] = settings: Chronic toxicity, fischer, Oral, Feed, dose end: 104 week, group: systemic
rat [21] = settings: Developmental neurotoxicity study; sprague dawley; Oral; Feed; dose end: 48 PND; group: cannot be grouped; developmental / developmental landmark / eye opening / eye opening + reproductive / offspring survival early / litter size / litter size + …
mouse [22] = settings: Carcinogenicity; b6c3f1; Oral; Feed; dose end: 78 week; group: systemic; systemic / in life observation / body weight / body weight
[23] = systemic / in life observation / body weight / body weight
[24] = group: maternal, reproductive / reproductive performance / estrous cycle / abnormal
[25] = group: systemic, systemic / hematology / erythrocyte (rbc) count differential / erythrocyte (rbc) + systemic / hematology / hematocrit (hct) / hematocrit (…
[26] = group: systemic, systemic / pathology microscopic / kidney / nephropathy + systemic / pathology microscopic / spleen / congestion + systemic / pathology …
[27] = group: offspring, systemic / in life observation / body weight / offspring (pup) weight + systemic / organ weight / brain / absolute + developmental / …
[28] = group: parental, systemic / in life observation / body weight / body weight + systemic / in life observation / clinical signs / drooping eyelids (ptosis) + …
[29] = group: parental, systemic / in life observation / clinical signs / salivation + systemic / organ weight / kidney / relative to body weight + systemic / organ…
[30] = group: reproductive, reproductive / reproductive performance / gestational length / gestational length + reproductive / reproductive performance / implantations…
[31] = group: reproductive, reproductive / reproductive performance / implantations / implantations
[32] = group: offspring, developmental / offspring survival late / viability index / viability index + developmental / developmental landmark / anogenital distance (…
[33] = group: parental, systemic / clinical chemistry / thyroxine (t4) / thyroxine (t4), total + systemic / organ weight / kidney / absolute + systemic / organ …
[34] = group: parental, systemic / organ weight / liver / absolute + systemic / organ weight / liver / relative to body weight + systemic / organ weight / kidney / …
[35] = systemic / pathology microscopic / lung / bronchiolization
[36] = systemic / in life observation / body weight / body weight gain
[37] = systemic / organ weight / liver / relative to body weight
[38] = systemic / pathology microscopic / kidney / hyaline droplet + systemic / pathology microscopic / kidney / pigmentation
[39] = systemic / in life observation / body weight / body weight + reproductive / reproductive performance / mating / mating
[40] = systemic / in life observation / body weight / body weight + reproductive / reproductive performance / mating / mating + systemic / clinical…
[41] = systemic / in life observation / food consumption / food consumption + systemic / organ weight / liver / absolute + systemic / organ weight…
[42] = systemic / in life observation / body weight / body weight + systemic / in life observation / body weight / body weight gain + systemic / in…
[43] = systemic / in life observation / body weight / body weight + systemic / in life observation / clinical signs / body temperature + systemic…
[44] = systemic / pathology microscopic / nose / hyperplasia + systemic / pathology microscopic / nose / hypertrophy + systemic / pathology …
[45] = group: developmental, developmental / developmental landmark / vaginal opening / vaginal opening + developmental / developmental landmark / preputial separation…
[46] = group: parental, systemic / in life observation / clinical signs / ataxia + systemic / in life observation / clinical signs / prostration + systemic / organ …
[47] = group: parental, systemic / organ weight / adrenal gland / absolute + systemic / organ weight / liver / absolute
[48] = systemic / organ weight / liver / relative to body weight + systemic / pathology gross / liver / discolored + systemic / pathology gross / …

Compound: CN(C)c1ccc(Cc2ccc(N(C)C)cc2)cc1 [4,4'-Methylenebis(N,N-dimethylaniline)]
- LEL (rat [1]; [23]): 18.8 mg/kg/day
- LOAEL (rat [1]; [23]): 37.5 mg/kg/day
- NEL (rat [1]; [23]): < 18.8 mg/kg/day
- NOAEL (rat [1]; systemic / in life observation / body weight / body weight + systemic / pathology microscopic / thyroid gland / adenoma + systemic / …): 18.8 mg/kg/day
- LEL (mouse [2]): 188 mg/kg/day
- LOAEL (mouse [2]): 188 mg/kg/day
- NEL (mouse [2]): < 188 mg/kg/day
- NOAEL (mouse [2]): < 188 mg/kg/day
- LEL (rat [3]): 7.25 mg/kg/day
- LOAEL (rat [3]): 34 mg/kg/day
- NEL (rat [3]): < 7.25 mg/kg/day
- NOAEL (rat [3]): 15.8 mg/kg/day

Compound: Cc1ccc([N+](=O)[O-])cc1 [4-Nitrotoluene]
- LEL (rat [4]; [24]): 680 mg/kg/day
- LOAEL (rat [4]; [24]): > 680 mg/kg/day
- NEL (rat [4]; [24]): 335 mg/kg/day
- NOAEL (rat [4]; [24]): ≥ 680 mg/kg/day
- LOAEL (rat [4]; [25]): 335 mg/kg/day
- NOAEL (rat [4]; [25]): 164 mg/kg/day
- LEL (rat [4]; [26]): 42 mg/kg/day
- NEL (rat [4]; [26]): < 42 mg/kg/day
- NEL (rat [5]; group: offspring, systemic / in life observation / body weight / offspring (pup) weight + developmental / offspring survival late / viability index / …): 40 mg/kg/day
- LEL (rat [5]; group: offspring, systemic / in life observation / body weight / offspring (pup) weight + systemic / organ weight / brain / absolute): 80 mg/kg/day
- LOAEL (rat [5]; [27]): > 160 mg/kg/day
- NOAEL (rat [5]; [27]): ≥ 160 mg/kg/day
- LOAEL (rat [5]; [28]): > 160 mg/kg/day
- NOAEL (rat [5]; [28]): ≥ 160 mg/kg/day
- LEL (rat [5]; [29]): 40 mg/kg/day
- NEL (rat [5]; [29]): < 40 mg/kg/day
- LOAEL (rat [5]; [30]): > 160 mg/kg/day
- NOAEL (rat [5]; [30]): ≥ 160 mg/kg/day
- LEL (rat [5]; [31]): 40 mg/kg/day
- NEL (rat [5]; [31]): < 40 mg/kg/day
- LOAEL (rat [6]; [32]): 160 mg/kg/day
- NEL (rat [6]; [32]): 40 mg/kg/day
- NOAEL (rat [6]; group: offspring, developmental / offspring survival late / viability index / viability index + systemic / organ weight / brain / absolute): 80 mg/kg/day
- LEL (rat [6]; group: offspring, systemic / organ weight / brain / absolute): 80 mg/kg/day
- LOAEL (rat [6]; [33]): > 160 mg/kg/day
- NOAEL (rat [6]; [33]): ≥ 160 mg/kg/day
- LEL (rat [6]; [34]): 40 mg/kg/day
- NEL (rat [6]; [34]): < 40 mg/kg/day
- LOAEL (mouse [7]; [23]): 345 mg/kg/day
- NOAEL (mouse [7]; systemic / in life observation / body weight / body weight + systemic / pathology microscopic / lung / adenoma/carcinoma combined + systemic…): 170 mg/kg/day
- LEL (mouse [7]; [35]): 155 mg/kg/day
- NEL (mouse [7]; [35]): < 155 mg/kg/day
- LOAEL (mouse [8]; [36]): 813 mg/kg/day
- NOAEL (mouse [8]; systemic / in life observation / body weight / body weight gain + systemic / in life observation / food consumption / food consumption + …): 439 mg/kg/day
- LEL (mouse [8]; [37]): 131 mg/kg/day
- NEL (mouse [8]; [37]): < 131 mg/kg/day
- LEL (rat [9]; [38]): 55 mg/kg/day
- NEL (rat [9]; [38]): < 55 mg/kg/day
- LOAEL (rat [9]; systemic / pathology microscopic / spleen / hematopoietic cell proliferation + systemic / pathology microscopic / spleen / pigmentation): 110 mg/kg/day
- NOAEL (rat [9]; systemic / pathology microscopic / spleen / hematopoietic cell proliferation + systemic / pathology microscopic / spleen / pigmentation + …): 55 mg/kg/day

Compound: ClC1=C(Cl)C2(Cl)C3C(Cl)C(Cl)CC3C1(Cl)C2(Cl)Cl (stereo not drawn) [Chlordane, technical grade]
- LEL (rat [10]; [39]): 0.1 mg/kg/day
- NEL (rat [10]; [39]): < 0.1 mg/kg/day
- LOAEL (rat [10]; [40]): > 5 mg/kg/day
- NOAEL (rat [10]; [40]): ≥ 5 mg/kg/day
- LEL (rat [11]): 0.045 mg/kg/day
- LOAEL (rat [11]): 0.045 mg/kg/day
- NEL (rat [11]): < 0.045 mg/kg/day
- NOAEL (rat [11]): < 0.045 mg/kg/day
- LEL (mouse [12]; [41]): 0.15 mg/kg/day
- NEL (mouse [12]; [41]): < 0.15 mg/kg/day
- NOAEL (mouse [12]; systemic / pathology microscopic / liver / degeneration + systemic / in life observation / food consumption / food consumption + systemic / …): 0.15 mg/kg/day
- LOAEL (mouse [12]; systemic / pathology microscopic / liver / degeneration + systemic / pathology microscopic / liver / necrosis): 0.75 mg/kg/day

Compound: CCN(CC)CCO [N,N-Diethylethanolamine]
- LOAEL (rat [13]; [42]): > 200 ppm
- NEL (rat [13]; [42]): 10 ppm
- NOAEL (rat [13]; [42]): ≥ 200 ppm
- LEL (rat [13]; [36]): 50 ppm
- LOAEL (rat [14]; [43]): > 300 ppm
- NEL (rat [14]; [43]): 10 ppm
- NOAEL (rat [14]; [43]): ≥ 300 ppm
- LEL (rat [14]; systemic / pathology microscopic / nose / infiltration cellular + systemic / pathology microscopic / nose / metaplasia): 55 ppm
- NEL (rat [15]; [44]): 10 ppm
- NOAEL (rat [15]; [44]): 10 ppm
- LOAEL (rat [15]; systemic / pathology microscopic / nose / hyperplasia + systemic / pathology microscopic / nose / infiltration cellular): 25 ppm
- LEL (rat [15]; systemic / pathology microscopic / nose / hyperplasia + systemic / pathology microscopic / nose / infiltration cellular + systemic / …): 25 ppm
- LOAEL (rat [16]; [42]): > 100 ppm
- NEL (rat [16]; [42]): 33 ppm
- NOAEL (rat [16]; [42]): ≥ 100 ppm
- LEL (rat [16]; systemic / in life observation / body weight / body weight gain + systemic / in life observation / food consumption / food consumption): 66 ppm

Compound: CCC1(c2ccccc2)C(=O)NC(=O)NC1=O [Phenobarbital]
- LEL (mouse [17]): 75 mg/kg/day
- LOAEL (mouse [17]): > 75 mg/kg/day
- NEL (mouse [17]): < 75 mg/kg/day
- NOAEL (mouse [17]): ≥ 75 mg/kg/day
- LEL (rat [18]): 40 mg/kg/day
- LOAEL (rat [18]): > 80 mg/kg/day
- NEL (rat [18]): < 40 mg/kg/day
- NOAEL (rat [18]): ≥ 80 mg/kg/day
- NEL (rat [19]; group: developmental, developmental / developmental landmark / vaginal opening / vaginal opening): 50 mg/kg/day
- LEL (rat [19]; [45]): 100 mg/kg/day
- LOAEL (rat [19]; [45]): > 100 mg/kg/day
- NOAEL (rat [19]; [45]): ≥ 100 mg/kg/day
- LOAEL (rat [19]; [46]): > 100 mg/kg/day
- NOAEL (rat [19]; [46]): ≥ 100 mg/kg/day
- LEL (rat [19]; [47]): 25 mg/kg/day
- NEL (rat [19]; [47]): < 25 mg/kg/day
- LOAEL (rat [20]; [48]): > 19 mg/kg/day
- NEL (rat [20]; [48]): 1.1 mg/kg/day
- NOAEL (rat [20]; [48]): ≥ 19 mg/kg/day
- LEL (rat [20]; systemic / organ weight / liver / relative to body weight + systemic / pathology gross / liver / mass + systemic / pathology microscopic / …): 4.6 mg/kg/day
- LEL (rat [21]): 37.5 mg/kg/day
- LOAEL (rat [21]): > 37.5 mg/kg/day
- NEL (rat [21]): < 37.5 mg/kg/day
- NOAEL (rat [21]): ≥ 37.5 mg/kg/day

Compound: N[C@@H](Cc1c[nH]c2ccccc12)C(=O)O [l-Tryptophan]
- LEL (mouse [22]): 3750 mg/kg/day
- LOAEL (mouse [22]): 3750 mg/kg/day
- NEL (mouse [22]): < 3750 mg/kg/day
- NOAEL (mouse [22]): < 3750 mg/kg/day
